SMILES strings stand for the structures.

The first assay has as its target human recombinant ATX (Homo sapiens, UniProt Q13822). Nature of the assay: Autotaxin (ATX) activity Quanta Red assay. It is filed as biochemical. Conditions: Table 2: additional compounds tested for ATX activity (Quanta Red Assay); read-out: Activity. The procedure:
The reaction was stopped after 2 hours with a 20 μL addition of Quanta Red Stop solution (1:20 dilution in distilled water). The above-described mixture with DMSO alone was used as a positive control whereas that with DMSO alone without ATX was taken as a negative control.
Fluorescence was determined in a BMG Labtech Pherastar plus plate reader ([…]). Data were analysed using Excel fit software. IC50 values were determined in duplicate.
Consider `Cc1ccc(CNC(=O)CCc2nc3cccnc3n2Cc2ccccc2)cc1` [Example 235, 3-(3-Benzyl-3H-imidazo[4,5-b]pyridin-2-yl)-N-(4-methyl-benzyl)-propionamide], for which the IC50 is 627 nM.

For `COc1ccc(Cn2c(CCC(=O)NCCc3ccc(SC)cc3)nc3cccnc32)cc1` [Example 221, 3-[3-(4-Methoxy-benzyl)-3H-imidazo[4,5-b]pyridin-2-yl]-N-[2-(4-methylsulfanyl-phenyl)-ethyl]-propionamide], the IC50 is 154 nM.

The assay is the same for the next values; noted with them: human recombinant ATX 0.8 μg/mL, 2 hours at room temperature, IC50 determined in duplicate; read-out: Activity (ATX activity, Quanta Red assay; IC50).
For the compound `C[C@H](OC(=O)NCc1nc2cccnc2n1Cc1ccc(F)cc1)c1ccc(F)cc1` [Example 164, [3-(4-Fluoro-benzyl)-3H-imidazo[4,5-b]pyridin-2-ylmethyl]-carbamic acid (S)-1-(4-fluoro-phenyl)-ethyl ester], the IC50 was 957 nM.

Take `C[C@H](NC(=O)COc1nc2cccnc2n1Cc1ccc(F)cc1)c1ccc(F)cc1` [Example 153, 2-[3-(4-fluoro-benzyl)-3H-imidazo[4,5-b]pyridin-2-yloxy]-N—[(S)-1-(4-fluoro-phenyl)-ethyl]-acetamide]: the IC50 turned out to be 39 nM.

Staying with this assay, now noted: read-out: Activity (ATX activity, Quanta Red assay; IC50).
Take `O=C(CCc1nc2cccnc2n1Cc1ccc(F)c(F)c1)NC(CCO)c1ccc(F)cc1` (stereo not shown) [Example 48, 3-[3-(3,4-Difluoro-benzyl)-3H-imidazo[4,5-b]pyridin-2-yl]-N-[1-(4-fluoro-phenyl)-3-hydroxy-propyl]-propionamide]: the IC50 worked out at 19 nM.

With `COc1ccc(CCNC(=O)CCc2nc3cccnc3n2Cc2ccc(OC)cc2)cc1` [Example 116, 3-[3-(4-Methoxy-benzyl)-3H-imidazo[4,5-b]pyridin-2-yl]-N-[2-(4-methoxy-phenyl)-ethyl]-propionamide], the IC50 came to 778 nM.

As to `C[C@H](NC(=O)CCc1nc2cccnc2n1Cc1ccc(F)c(F)c1)c1ccc(N2CCNCC2)cc1` [Example 193, 3-[3-(3,4-Difluoro-benzyl)-3H-imidazo[4,5-b]pyridin-2-yl]-N-[(S)-1-(4-piperazin-1-yl-phenyl)-ethyl]-propionamide], the IC50 is 83 nM.

In the case of `CCN(CC)Cc1ccc([C@H](C)NC(=O)CCc2nc3cccnc3n2Cc2ccc(F)c(F)c2)cc1` [Example 207, N-[(S)-1-(4-Diethylaminomethyl-phenyl)-ethyl]-3-[3-(3,4-difluoro-benzyl)-3H-imidazo[4,5-b]pyridin-2-yl]-propionamide], the IC50 came to 25 nM.

For `C[C@H](NC(=O)CCc1nc2cccnc2n1Cc1ccc(F)c(F)c1)c1ccc(N2CCNC(C(F)(F)F)C2)cc1` (stereo partly drawn) [Example 179, 3-[3-(3,4-Difluoro-benzyl)-3H-imidazo[4,5-b]pyridin-2-yl]-N-{(S)-1-[4-(3-trifluoromethyl-piperazin-1-yl)-phenyl]-ethyl}-propionamide], the IC50 was 5 nM.

For the compound `O=C(CCc1nc2cccnc2n1Cc1ccc(OC(F)(F)F)cc1)Nc1ncco1` [Example 78, N-Oxazol-2-yl-3-[3-(4-trifluoromethoxy-benzyl)-3H-imidazo[4,5-b]pyridin-2-yl]-propionamide], the IC50 amounted to 800 nM.

On to `COc1ccc(Cn2c(CCC(=O)N[C@@H](C)c3ccc(F)cc3)nc3cccnc32)cc1` [Example 96, N-[(S)-1-(4-Fluoro-phenyl)-ethyl]-3-[3-(4-methoxy-benzyl)-3H-imidazo[4,5-b]pyridin-2-yl]-propionamide], for which the IC50 was determined as 22 nM.

With `O=C(CCc1nc2ccncc2n1Cc1ccc(OC(F)(F)F)cc1)NCc1ccc(Cl)cc1` [Example 129, N-(4-Chloro-benzyl)-3-[3-(4-trifluoromethoxy-benzyl)-3H-imidazo[4,5-c]pyridin-2-yl]-propionamide], the IC50 came to 20 nM.

For the compound `C[C@H](NC(=O)CCc1nc2cccnc2n1Cc1ccc(F)cc1)c1ccccn1` [Example 68, 3-[3-(4-Fluoro-benzyl)-3H-imidazo[4,5-b]pyridin-2-yl]-N-((S)-1-pyridin-2-yl-ethyl)-propionamide], the IC50 worked out at 212 nM.

As to `COc1ccc(CNC(=O)CCc2nc3cccc(F)c3n2Cc2ccc(OC)cc2)cc1` [Example 91, 3-[7-Fluoro-1-(4-methoxy-benzyl)-1H-benzoimidazol-2-yl]-N-(4-methoxy-benzyl)-propionamide], the IC50 is 14 nM.

Regarding `CC(Sc1nc2cccnc2n1Cc1ccc(OC(F)(F)F)cc1)C(=O)N[C@@H](CO)c1ccccc1` (stereo partly drawn) [Example 154, N—((R)-2-hydroxy-1-phenyl-ethyl)-2-[3-(4-trifluoromethoxy-benzyl)-3H-imidazo[4,5-b]pyridin-2-ylsulfanyl]-propionamide], the IC50 was found to be 11 nM.

With `COc1ccc([C@H](C)NC(=O)CCc2nc3cc(C)cnc3n2Cc2ccc(OC(F)(F)F)cc2)cc1` [Example 212, N-[(S)-1-(4-Methoxy-phenyl)-ethyl]-3-[6-methyl-3-(4-trifluoromethoxy-benzyl)-3H-imidazo[4,5-b]pyridin-2-yl]-propionamide], the IC50 is 7 nM.

On to `C[C@H](NC(=O)CCc1nc2cccnc2n1Cc1ccc(F)c(F)c1)c1ccc(F)cc1` [Example 95, 3-[3-(3,4-Difluoro-benzyl)-3H-imidazo[4,5-b]pyridin-2-yl]-N-[(S)-1-(4-fluoro-phenyl)-ethyl]-propionamide], for which the IC50 turned out to be 26 nM.

In the case of `O=C(CCc1nc2cccnc2n1Cc1ccc(OC(F)(F)F)cc1)NCc1ccc(Cl)cc1` [Example 18, N-(4-Chloro-benzyl)-3-[3-(4-trifluoromethoxy-benzyl)-3H-imidazo[4,5-b]pyridin-2-yl]-propionamide], the IC50 came out at 3 nM.

Regarding `C[C@H](NC(=O)CCc1nc2cccnc2n1Cc1ccc(OC(F)(F)F)cc1)c1ccc(N[C@H]2CCNC2)cc1` [Example 175, N-{(S)-1-[4-((S)-Pyrrolidin-3-ylamino)-phenyl]-ethyl}-3-[3-(4-trifluoromethoxy-benzyl)-3H-imidazo[4,5-b]pyridin-2-yl]-propionamide], the IC50 is 3 nM.

`COc1ccc(CNC(=O)CCc2nc3cccnc3n2Cc2ccc(OC(F)(F)F)cc2)cc1` [Example 14, N-(4-Methoxy-benzyl)-3-[3-(4-trifluoromethoxy-benzyl)-3H-imidazo[4,5-b]pyridin-2-yl]-propionamide]: the IC50 was 2 nM.

For the compound `CC(C)(C)OC(=O)N1CCC(CNC(=O)CCc2nc3cccnc3n2Cc2ccc(OC(F)(F)F)cc2)CC1` [Example 51, 4-({3-[3-(4-Trifluoromethoxy-benzyl)-3H-imidazo[4,5-b]pyridin-2-yl]-propionylamino}-methyl)-piperidine-1-carboxylic acid tert-butyl ester], the IC50 worked out at 22 nM.

As for `Cc1cnc2c(c1)nc(CCC(=O)N[C@@H](C)c1ccc(N3CCCNCC3)cc1)n2Cc1ccc(OC(F)(F)F)cc1` [Example 191, N-[(S)-1-(4-[1,4]Diazepan-1-yl-phenyl)-ethyl]-3-[6-methyl-3-(4-trifluoromethoxy-benzyl)-3H-imidazo[4,5-b]pyridin-2-yl]-propionamide], the IC50 came out at 25 nM.

As to `COc1ccc(CNC(=O)CCc2nc3cccnc3n2Cc2ccc(F)c(F)c2)cc1` [Example 100, 3-[3-(3,4-Difluoro-benzyl)-3H-imidazo[4,5-b]pyridin-2-yl]-N-(4-methoxy-benzyl)-propionamide], the IC50 was 50 nM.

As for `COc1ccc(Cn2c(CCC(=O)NC(C)C)nc3cccnc32)cc1` [Example 113, N-Isopropyl-3-[3-(4-methoxy-benzyl)-3H-imidazo[4,5-b]pyridin-2-yl]-propionamide], the IC50 was found to be 1500 nM.

`CC(NC(=O)CCc1nc2cccnc2n1Cc1ccc(OC(F)(F)F)cc1)C1CCN(C(=O)OC(C)(C)C)CC1` (stereo not shown) [Example 43, 4-(1-{3-[3-(4-Trifluoromethoxy-benzyl)-3H-imidazo[4,5-b]pyridin-2-yl]-propionylamino}-ethyl)-piperidine-1-carboxylic acid tert-butyl ester]: the IC50 came out at 11 nM.

Regarding `C[C@H](NC(=O)CCc1nc2cccnc2n1Cc1ccc(F)c(F)c1)c1ccc(N2CCN[C@@H](C)C2)cc1` [Example 184, 3-[3-(3,4-Difluoro-benzyl)-3H-imidazo[4,5-b]pyridin-2-yl]-N-{(S)-1-[4-((S)-3-methyl-piperazin-1-yl)-phenyl]-ethyl}-propionamide], the IC50 came out at 12 nM.

For the compound `O=C(CCc1nc2cccnc2n1Cc1ccc(OC(F)(F)F)cc1)Nc1nncs1` [Example 73, N-[1,3,4]Thiadiazol-2-yl-3-[3-(4-trifluoromethoxy-benzyl)-3H-imidazo[4,5-b]pyridin-2-yl]-propionamide], the IC50 worked out at 267 nM.

Take `CC[C@H]1CN(c2ccc([C@H](C)NC(=O)CCc3nc4cccnc4n3Cc3ccc(OC(F)(F)F)cc3)cc2)CCN1` [Example 172, N-{(S)-1-[4-((S)-3-Ethyl-piperazin-1-yl)-phenyl]-ethyl}-3-[3-(4-trifluoromethoxy-benzyl)-3H-imidazo[4,5-b]pyridin-2-yl]-propionamide]: the IC50 worked out at 2 nM.

Consider `CCC[C@H](NC(=O)CCc1nc2cccnc2n1Cc1ccc(OC)cc1)c1ccccc1` [Example 99], for which the IC50 was found to be 48 nM.

Consider `CC(C)(C)OC(=O)N1CCC(CNC(=O)CCc2nc3ccncc3n2Cc2ccc(OC(F)(F)F)cc2)CC1` [Example 135, 4-({3-[3-(4-Trifluoromethoxy-benzyl)-3H-imidazo[4,5-c]pyridin-2-yl]-propionylamino}-methyl)-piperidine-1-carboxylic acid tert-butyl ester], for which the IC50 is 1570 nM.

For `O=C(CCc1nc2cccnc2n1Cc1ccccc1OC(F)(F)F)NCc1ccc(OC(F)(F)F)cc1` [Example 120, N-(4-Trifluoromethoxy-benzyl)-3-[3-(2-trifluoromethoxy-benzyl)-3H-imidazo[4,5-b]pyridin-2-yl]-propionamide], the IC50 turned out to be 292 nM.

These data come from patent US11453666B2, “Autotaxin inhibitory compounds” (Cancer Research Technology Limited, priority 2015, dated 2022).
